Experiments:
Type in all cases: cell-based
[1] = system: Aspergillus niger Wild type; test: Microbiological challenge testing in BPW broth, graded subculture counts; conditions: A. niger
Procedure: The microorganisms in the table below were used in challenge tests. They were either ATCC (American Type Culture Collection) or “wild type” as indicated. Wild type organisms were problematic organisms previously isolated from chemical products.
All of the microorganisms were grown in Tryptose Soy Broth (TSB), DIFCO™ available from Becton, Dickinson and Company, containing 1% dextrose. Candida albicans and Aspergillus niger, were incubated at 22° C.+/−2° C. for at least 96 hours. All bacteria were incubated at 35° C.+/−2° C. in a humidified incubator for at least 96 hours.
Candida albicans and Aspergillus niger were also grown on Sabouraud Dextrose Agar (SABD) at 22° C. for 7 to 14 days or until full sporulation was achieved.
The following procedure was followed to determine the amount of each challenge material (inoculum broth) needed to produce a 10^8 CFU/mL challenge, which is equivalent to a final test-sample microbial concentration of 10^5 to 10^6 CFU/mL (CFU=colony forming units).
Using a sterile pipette, 1 mL of the growth from each TSB culture was transferred into tubes of 9 mL buffered water (pH 7.2 phosphate buffer) and mixed thoroughly. This was repeated to make serial 1:10 dilutions. Then, 0.1 mL of each sample and dilution was inoculated onto agar plates to produce the equivalent of a further 1:10 dilution. (C. albicans and A. niger were inoculated onto SABD and bacteria were inoculated onto Plate Count Agar (PCA), DIFCO™ available from Becton, Dickinson and Company.) (The normal volume plated for most samples was 0.1 mL. Some samples that could be very low in micro-organisms (high dilutions) were plated using 0.5 mL of inoculum, in order to produce reproducible counts.) The samples were distributed on the plates using the spread-plate technique. The spread-plate technique is carried out by spreading the sample over the entire plate surface using a sterile spreading rod while rotating the plate with a rotary auto-plater. After the inoculum was absorbed completely by the agar, each plate was inverted and incubated (fungi at 22° C.+/−2° C. and bacteria at 35° C.+/−2° C.).
After incubation for at least 48 hours, colonies that had developed on the agar plates were counted (CFU) and recorded with the corresponding dilution. If counting had to be delayed temporarily, plates were refrigerated, preferably no more than 24 hours, until they could be counted. The number of CFU/mL was determined by multiplying the plate count by the dilution factor of the plate counted.
Turbidity in Nepholemetric Turbidity Units (NTU) was measured for each serial dilution using the HF-Micro 100 Model Turbidimeter. For each microorganism, the plate counts were compared to the turbidity readings.
Aspergillus niger cultures were harvested and spores dislodged from the SABD on which they were grown by rubbing the growth gently with a sterile inoculating loop. The spores were then mixed into the broth culture that had been incubated with a sterile magnetic stir bar to reduce pellicle formation. The spore-culture mixture was filtered repeatedly through sterile, nonabsorbent cotton and harvested repeatedly, adjusting vegetative cells and spores to a level of 1.0×10^8. A hemocytometer was used to verify the final challenge concentration.
Control substrates (“broth alone”) were prepared for each microorganism separately in triplicate by adding 13.5 mL of Buffered Peptone Water broth (BPW) containing 1% dextrose to each 20-mL glass tube, then adding 1.5 mL challenge material to produce a final concentration at time zero of 10^5 to 10^6 CFU/mL and a total volume of 15 mL.

[2] = system: Streptococcus faecalis; test: Determination of MIC and MLC in test broth; conditions: 30-day subculture
Procedure: (§1) Two antimicrobial endpoints were investigated. The minimum inhibitory concentration (MIC), which identifies the lowest concentration of test material at which growth for a specific organism is inhibited (by a minimum of 3 log units), reflects “biostatic activity”. The minimum lethal concentration (MLC), or lowest concentration that kills the organism and at which subculturing with growth is not possible, reflects “biocidal activity”. 1,4-CHDM and propylene glycol (PG) were added to previously sterilized screw-cap glass tubes and diluted with Peptone Water Broth with 2 wt % Dextrose (=test broth) to the following dilutions (weight percent): 0.05, 0.075, 0.125, 0.25, 0.5, 0.75, 1.25, 2.5, 5.0, 7.5, 10.0, 15.0, 20.0.
(§2) Each of 12 sets of the above test tubes were challenged with specific organisms (see Table 5) to produce a contamination of between 1.0×10^5 cfu/g and 1.0×10^6 cfu/g in the test broth to which no 1,4-CHDM or propylene glycol had been added. These challenge organisms were prepared in TSB broth, allowed to grow for 72 hours at 35° C.+/−2° C., centrifuged at 2500 rpm for 5 minutes, and the supernatant broth was removed. The microbial pellet was then re-diluted with sterile buffered water to a turbidity that matched previous 1.0×10^6 cfu/g concentrations of that organism's specific growth curve. This challenge was repeated on day 3. Plate counts of both challenges enumerated to within 1.0×10^5+/−5,000 cfu/g after 7 days incubation at 35° C.+/−2° C.
(§3) These tubes were mixed well by inversion (minimum of 25 inversions) and incubated at 35° C.+/−2° C. The tubes were inverted again (minimum of 25 times) on the third and seventh day of incubation and prior to each subculture.
(§4) These subcultures were incubated under optimal conditions and nutrition for no less than 5 days. Subcultures of 0.1 ml, undiluted and diluted 1:10, 1:100, . . . , and 1:10,000, were transferred to plates using the spread plate method onto Plate Count Agar; and SAB Dextrose Agar in addition for the Candida and Aspergillus species; and incubated as follows: 35° C.+/−2° C. for the Plate Count Agar and 22° C.+/−2° C. for the SAB Dextrose plates of Candida albicans and Aspergillus niger. Negative results were not reported before 7 days incubation and counts were performed after no less than 5 days incubation. Counts of Candida and Aspergillus species were made on the agar representing the highest count observed, usually the SAB Dextrose.

[3] = system: Penicillium notatum ATCC 36740; test: Determination of MIC and MLC in test broth; conditions: Penicillium notatum ATCC 36740, 30-day subculture
Procedure: as §1, §2, §3, §4

[4] = system: Staphylococcus aureus ATCC 25923; test: Determination of MIC and MLC in test broth; conditions: Staphylococcus aureus ATCC 25923, 30-day subculture
Procedure: as §1, §2, §3, §4

[5] = system: Escherichia coli ATCC 25922; test: Determination of MIC and MLC in test broth; conditions: Escherichia coli ATCC 25922, 30-day subculture
Procedure: as §1, §2, §3, §4

[6] = system: Pseudomonas aeruginosa ATCC 27853; test: Determination of MIC and MLC in test broth; conditions: Pseudomonas aeruginosa ATCC 27853, 30-day subculture
Procedure: as §1, §2, §3, §4

[7] = system: Bacillus subtilis ATCC 6633; test: Determination of MIC and MLC in test broth; conditions: Bacillus subtilis ATCC 6633, 30-day subculture
Procedure: as §1, §2, §3, §4

Row | Structure (SMILES) | Grade ([1]; 0.5% (wt/vol), 3 day) | Grade ([1]; 0.5% (wt/vol), 13 day) | Grade ([1]; 0.5% (wt/vol), 30 day) | Grade ([1]; 1.25% (wt/vol), 3 day) | Grade ([1]; 1.25% (wt/vol), 13 day) | Grade ([1]; 1.25% (wt/vol), 30 day) | Grade ([1]; 2.5% (wt/vol), 3 day) | Grade ([1]; 2.5% (wt/vol), 13 day) | Grade ([1]; 2.5% (wt/vol), 30 day) | Grade ([1]; 5.0% (wt/vol), 3 day) | Grade ([1]; 5.0% (wt/vol), 13 day) | Grade ([1]; 5.0% (wt/vol), 30 day) | also measured
1 | OCC1CCCCC1CO (stereo not drawn) [1,2-CHDM, 1,2-cyclohexanedimethanol] | 4.7 | 4 | 4 | 3.3 | 3.3 | 4 | 2 (Countable (10 to 100 colonies)) | 0 | 0 | 0 | 0 | 0 | –
2 | OCC1CCCC(CO)C1 (stereo not drawn) [1,3-CHDM, 1,3-cyclohexanedimethanol] | 5 | 5 | 5 | 5 | 4 | 4 | 4 | 4 | 4 | 2 (Countable (10 to 100 colonies)) | 2 (Countable (10 to 100 colonies)) | 4 | –
3 | OCC1CCC(CO)CC1 (stereo not drawn) [1,4-CHDM, 1,4-cyclohexanedimethanol] | 4 | 4 | 4 | 4 | 4 | 4 | 2 (Countable (10 to 100 colonies)) | 1 (Countable (1 to 10 colonies)) | 2.3 | 0 | 0 | 0 | MIC 30 DAYS [2]: 2.5 wt %; MLC 30 DAYS [2]: >20 wt %; MIC 30 DAYS [3]: 5 wt %; MLC 30 DAYS [3]: >20 wt %; MIC 30 DAYS [4]: 5 wt %; MLC 30 DAYS [4]: >20 wt %; MIC 30 DAYS [5]: 2.5 wt %; MLC 30 DAYS [5]: >20 wt %; MIC 30 DAYS [6]: 2.5 wt %; MLC 30 DAYS [6]: 20 wt %; MIC 30 DAYS [7]: 2.5 wt %; MLC 30 DAYS [7]: >20 wt %
4 | CCCCOCCO [EB, 2-butoxyethanol] | – | – | – | – | – | – | 4 | 4 | 4 | 2.5 | 0 | 0 | –
5 | O=C([O-])CN(CCN(CC(=O)[O-])CC(=O)O)CC(=O)O.[Na+].[Na+] [EDTA, Na2EDTA] | 4 | 4 | 4 | 2 (Countable (10 to 100 colonies)) | 1 (Countable (1 to 10 colonies)) | 3 | 0 | 0 | 0 | 0 | 0 | 0 | –
6 | CC(O)CO (stereo not drawn) [PG, propylene glycol] | 5 | 5 | 5 | 5 | 5 | 5 | 4 | 5 | 5 | 4 | 4 | 4 | MIC 30 DAYS [2]: 20 wt %; MLC 30 DAYS [2]: >20 wt %; MIC 30 DAYS [3]: >20 wt %; MLC 30 DAYS [3]: >20 wt %; MIC 30 DAYS [4]: 20 wt %; MLC 30 DAYS [4]: >20 wt %; MIC 30 DAYS [5]: 10 wt %; MLC 30 DAYS [5]: >20 wt %; MIC 30 DAYS [6]: 10 wt %; MLC 30 DAYS [6]: >20 wt %; MIC 30 DAYS [7]: 10 wt %; MLC 30 DAYS [7]: >20 wt %
7 | CC1(C)C(O)C(C)(C)C1O (stereo not drawn) [TMCBD, 2,2,4,4-tetramethyl-1,3-cyclobutanediol] | 5 | 5 | 5 | 4 | 4 | 4 | 3 | 2 (Countable (10 to 100 colonies)) | 3 | 2 (Countable (10 to 100 colonies)) | 0 | 0 | –

— patent US20100160454A1, “ANTIMICROBIAL AGENTS, COMPOSITIONS AND PRODUCTS CONTAINING THE SAME, AND METHODS OF USING THE COMPOSITIONS AND PRODUCTS” (Eastman Chemical Company, priority 2008, published 2010)
